Data reported in a compilation of properties of binary mixtures (doi:10.1007/s10973-015-5205-9).

Test: xn = mol fraction of the nth substance listed
Settings: 100 kPa

## CCOCCO + CC[n+]1ccn(C)c1.F[B-](F)(F)F
298.15 K, x1 = 0.0466
  speed of sound: 1614.9 m/s
298.15 K, x1 = 0.0981
  speed of sound: 1607.6 m/s
298.15 K, x1 = 0.1973
  speed of sound: 1589.7 m/s
298.15 K, x1 = 0.3049
  speed of sound: 1564.7 m/s
298.15 K, x1 = 0.4112
  speed of sound: 1535 m/s
298.15 K, x1 = 0.4953
  speed of sound: 1508.4 m/s
298.15 K, x1 = 0.5705
  speed of sound: 1482.4 m/s
298.15 K, x1 = 0.696
  speed of sound: 1435 m/s
298.15 K, x1 = 0.7952
  speed of sound: 1394.4 m/s
298.15 K, x1 = 0.8411
  speed of sound: 1374.8 m/s
298.15 K, x1 = 0.8698
  speed of sound: 1362.4 m/s
298.15 K, x1 = 0.9487
  speed of sound: 1327.3 m/s
298.15 K, x1 = 1
  speed of sound: 1304 m/s
308.15 K, x1 = 0.0466
  speed of sound: 1591.3 m/s
308.15 K, x1 = 0.0981
  speed of sound: 1583.8 m/s
308.15 K, x1 = 0.1487
  speed of sound: 1575 m/s
308.15 K, x1 = 0.1973
  speed of sound: 1565.3 m/s
308.15 K, x1 = 0.3049
  speed of sound: 1539.7 m/s
308.15 K, x1 = 0.4112
  speed of sound: 1509.2 m/s
308.15 K, x1 = 0.5705
  speed of sound: 1455 m/s
308.15 K, x1 = 0.696
  speed of sound: 1406 m/s
308.15 K, x1 = 0.7952
  speed of sound: 1363.9 m/s
308.15 K, x1 = 0.8411
  speed of sound: 1343.6 m/s
308.15 K, x1 = 0.9487
  speed of sound: 1294 m/s
308.15 K, x1 = 1
  speed of sound: 1269.5 m/s
318.15 K, x1 = 0.0466
  speed of sound: 1568 m/s
318.15 K, x1 = 0.0981
  speed of sound: 1560.2 m/s
318.15 K, x1 = 0.1487
  speed of sound: 1551.2 m/s
318.15 K, x1 = 0.4112
  speed of sound: 1483.5 m/s
318.15 K, x1 = 0.4953
  speed of sound: 1455.3 m/s
318.15 K, x1 = 0.5705
  speed of sound: 1427.6 m/s
318.15 K, x1 = 0.696
  speed of sound: 1376.9 m/s
318.15 K, x1 = 0.8411
  speed of sound: 1311.9 m/s
318.15 K, x1 = 0.8698
  speed of sound: 1298.3 m/s
318.15 K, x1 = 0.9487
  speed of sound: 1259.9 m/s
318.15 K, x1 = 1
  speed of sound: 1234.1 m/s
328.15 K, x1 = 0.0466
  speed of sound: 1545.2 m/s
328.15 K, x1 = 0.0981
  speed of sound: 1537.4 m/s
328.15 K, x1 = 0.1487
  speed of sound: 1528.2 m/s
328.15 K, x1 = 0.1973
  speed of sound: 1517.9 m/s
328.15 K, x1 = 0.3049
  speed of sound: 1490.7 m/s
328.15 K, x1 = 0.4112
  speed of sound: 1458.2 m/s
328.15 K, x1 = 0.4953
  speed of sound: 1428.8 m/s
328.15 K, x1 = 0.696
  speed of sound: 1347.7 m/s
328.15 K, x1 = 0.7952
  speed of sound: 1302.7 m/s
328.15 K, x1 = 0.8698
  speed of sound: 1267.2 m/s
328.15 K, x1 = 0.9487
  speed of sound: 1228.2 m/s
328.15 K, x1 = 1
  speed of sound: 1202.2 m/s

## CC[n+]1ccn(C)c1.F[B-](F)(F)F + CCOCCO
298.15 K, x2 = 0
  speed of sound: 1620.3 m/s
318.15 K, x2 = 0
  speed of sound: 1573.8 m/s
328.15 K, x2 = 0
  speed of sound: 1550.9 m/s
